Measurements published in ChEMBL document CHEMBL1143343, “Cooperative alkylation of double-strand human telomere repeat sequences by PI polyamides with 11-base-pair recognition based on a heterotrimeric design” (Bioorg Med Chem, 2009).
Activity calls are given as the source filed them. The calls are words filed in the database; no cut-off is given here.

Columns and labels:
Calf thymus DNA [1] = test: (§1) Binding affinity to site 4 human telomeric 5'GGTTAGGGTTA3' sequence in 219 bp calf thymus DNA fragment assessed as DNA alkylating activity at 20 to 500 nM after 12 hrs by PAGE in presence of {3-[(4-{[4-({4-[(4-Acetylamino-1-methyl-1H-pyrrole-2-carbonyl)-amino]-1-methyl-1H-pyrrole-2-carbonyl}-amino)-1-methyl-1H-pyrrole-2-carbonyl]-amino}-1-methyl-1H-pyrrole-2-carbonyl)-amino]-propyl}-dimethyl-ammonium; assay type: nucleic-acid assay
Calf thymus DNA [2] = test: as §1, with “site 2” for “site 4”; assay type: nucleic-acid assay
Calf thymus DNA [3] = test: Binding affinity to human telomeric repeat sequence in 219 bp calf thymus DNA fragment assessed as DNA alkylating activity at 200 nM after 12 hrs by PAGE in presence of distamycin A; assay type: nucleic-acid assay
Calf thymus DNA [4] = test: Binding affinity to site 3 human telomeric 5'GGTTAGGGTTA3' sequence in 219 bp calf thymus DNA fragment assessed as DNA alkylating activity at 20 to 500 nM after 12 hrs by PAGE in presence of distamycin A; assay type: nucleic-acid assay
Calf thymus DNA [5] = test: as §1, with “site 3” for “site 4”; assay type: nucleic-acid assay
Calf thymus DNA [6] = test: Binding affinity to human telomeric repeat sequence in 219 bp calf thymus DNA fragment assessed as DNA alkylating activity at 20 to 500 nM after 12 hrs by PAGE in presence of 3-(4-(4-(4-(3-(3-(4-(4-(4-(4-acetamido-1-methyl-1H-pyrrole-2-carboxamido)-1-methyl-1H-pyrrole-2-carboxamido)-1-methyl-1H-pyrrole-2-carboxamido)-1-methyl-1H-pyrrole-2-carboxamido)propanamido)propanamido)-1-methyl-1H-pyrrole-2-carboxamido)-1-methyl-1H-pyrrole-2-carboxamido)-1-methyl-1H-pyrrole-2-carboxamido)-N,N-dimethylpropan-1-aminium; assay type: nucleic-acid assay
Jurkat [7] = test: Cytotoxicity against human Jurkat cells after 48 hrs by WST-8 assay in presence of 10 uM {3-[(4-{[4-({4-[(4-Acetylamino-1-methyl-1H-pyrrole-2-carbonyl)-amino]-1-methyl-1H-pyrrole-2-carbonyl}-amino)-1-methyl-1H-pyrrole-2-carbonyl]-amino}-1-methyl-1H-pyrrole-2-carbonyl)-amino]-propyl}-dimethyl-ammonium pretreated 24 hrs before compound addition; assay type: functional, cell-based
Calf thymus DNA [8] = test: Binding affinity to human telomeric repeat sequence in 219 bp calf thymus DNA fragment assessed as DNA alkylating activity at 20 to 500 nM after 12 hrs by PAGE; assay type: nucleic-acid assay
Calf thymus DNA [9] = test: Binding affinity to human telomeric repeat sequence in 219 bp calf thymus DNA fragment assessed as DNA alkylating activity at 200 nM after 12 hrs by PAGE in presence of {3-[(4-{[4-({4-[(4-Acetylamino-1-methyl-1H-pyrrole-2-carbonyl)-amino]-1-methyl-1H-pyrrole-2-carbonyl}-amino)-1-methyl-1H-pyrrole-2-carbonyl]-amino}-1-methyl-1H-pyrrole-2-carbonyl)-amino]-propyl}-dimethyl-ammonium; assay type: nucleic-acid assay
Calf thymus DNA [10] = test: Binding affinity to site 2 human telomeric 5'GGTTAGGGTTA3' sequence in 219 bp calf thymus DNA fragment assessed as DNA alkylating activity at 20 to 500 nM after 12 hrs by PAGE in presence of distamycin A; assay type: nucleic-acid assay
Jurkat [11] = test: Cytotoxicity against human Jurkat cells after 48 hrs by WST-8 assay in presence of 10 uM distamycin A pretreated 24 hrs before compound addition; assay type: functional, cell-based
Jurkat [12] = test: Cytotoxicity against human Jurkat cells after 48 hrs by WST-8 assay; assay type: functional, cell-based
Calf thymus DNA [13] = test: Binding affinity to site 4 human telomeric 5'GGTTAGGGTTA3' sequence in 219 bp calf thymus DNA fragment assessed as DNA alkylating activity at 20 to 500 nM after 12 hrs by PAGE in presence of distamycin A; assay type: nucleic-acid assay

## CC(=O)Nc1cn(C)c(C(=O)Nc2cn(C)c(C(=O)Nc3cn(C)c(C(=O)NCCC(=O)NCCC(=O)Nc4cn(C)c(C(=O)Nc5cn(C)c(C(=O)Nc6cn(C)c(C(=O)Nc7ccc8[nH]c(C(=O)N9CC(CCl)c%10c9cc(O)c9ccccc%109)cc8c7)n6)n5)n4)n3)n2)n1 (stereo not drawn)
Calf thymus DNA [1]
  Activity: Active
Calf thymus DNA [2]
  Activity: Active
Calf thymus DNA [3]
  Activity: Active
Calf thymus DNA [4]
  Activity: Active
Calf thymus DNA [5]
  Activity: Active
Calf thymus DNA [6]
  Activity: Active
Jurkat [7]
  IC50: 79 nM
Calf thymus DNA [8]
  Activity: inactive
Calf thymus DNA [9]
  Activity: Active
Calf thymus DNA [10]
  Activity: Active
Jurkat [11]
  IC50: 32 nM
Jurkat [12]
  IC50: 100 nM
Calf thymus DNA [13]
  Activity: Active
